# Source: patent EP3045469A1, “POLYMYXIN DERIVATIVE AND USES THEREOF” (priority 2015, dated 2016)
# Several values for one entry are separate records, joined by “and”; a condition that tells them apart may be missing. Equal entries are not always repeated. Entries after “also recorded” stand apart in the source; their conditions may differ. Where two headings read alike, the source gives them in different places. Where a SMILES comes first, the peptide text is derived from it. Bridges are numbered along the chain shown (N, C = ends). [ ]: non-standard residue; d: D form. The star is where a group is joined. Octanoyl = CCCCCCCC(=O)*; Dab = NCC[C@H](N)C(=O)O; Abu = CC[C@H](N)C(=O)O
# How the values were obtained:
# [1] = Toxicokinetics (plasma and urine levels by LC-MS/MS) in cynomolgus monkeys; details: for urinary recoveries (0-8 h urine collection) / urine concentrations (in 0-8 h urine collection): 36 mg/kg/d; for concentration in the urine: after infusion at 8 mg/kg, highest found either in the 0-4 h or 4-8 h sample, given for each animal; for concentration in the urine / 0-8 h recovery in urine: 8 mg/kg; for 0-8 h recovery in urine: after the infusion of 8 mg/kg, percentages given for each animal
# Experimental: (§1) For seven days, the animals were dosed by intravenous (IV) infusion three times daily (TID) at a dose volume of 10 mL/kg for 1 hour (± 10 minutes), 8 ± 0.5 hours apart. The day of initial dose administration was designated study Day 1, with subsequent days consecutively numbered. Days prior to the initial dose administration were consecutively numbered with the final day of acclimation referenced as Day -1.
# (§2) The following parameters were evaluated at designed intervals: clinical observations, body weights, clinical pathology (hematology, coagulation, serum chemistry, urinalysis including urine sediments and urine chemistry), toxi-cokinetics (plasma and urine) and anatomic pathology (kidney). In cases of animals sacrificed on an unscheduled basis, samples were taken on the day of the sacrifice.
# Plasma and urine concentrations for toxicokinetic (TK) studies were determined by using liquid chromatograph interfaced with a mass spectrometer after precipitation of proteins. A sample (100 µL) was mixed with internal standard solution in water:formic acid (99:1 v/v; […]). Then, 600µL of 100:1 acetonitrile:formic acid was added. The plates were centrifuged at 3200 rpm for 5 minutes. Using a Tomtec Quadra96, a 450 µL aliquot was transferred to a new 96-well plate and dried under nitrogen at 40°C. Then, 200 µL of water:methanol:formic acid (85:15:1 1 v/v) was added and the plate sealed for LC-MS/MS injection. LC-MS system consisted of Waters Acquity liquid chromatograph interfaced with a Thermo Scientific TSQ Quantitative triple quadrupole MS with ionization in the positive ion mode. Each sample (20 µL) was injected onto a Waters Acquity BEH Shield RP18 column (2.1 x 50 mm; 1.7 µm) equilibrated at 50°C. Mobile Phase A was 85:15:1 v/v water:methanol:formic acid. Mobile Phase B was 50:50:1 v/v acetonitrile:methanol:formic acid.
# Peak area ratios from the calibration standard responses were regressed using a (1/concentration^2) linear fit for polymyxin B using colistin as the internal standard. For NAB739 and NAB815, peak areas from the calibration standard responses were regressed using a (1/concentration^2) quadratic fit (without the use of an internal standard).
# Toxicokinetic analysis was performed by using WinNonlin Phoenix version 6.3 software (Pharsight, Cary, NC). For plasma TK, noncompartmental IV infusion model was used.
# The data is from the cynomolgus monkey studies described in the Example 3, where the peptides were administered as a 1-hour intravenous infusion thrice a day. The plasma and urine levels of the peptides were determined as in Example 3.
# [2] = system: E. coli JMI 109; assay: MIC assay (CLSI broth microdilution; checkerboard with rifampin); assay type: cell-based, Escherichia coli; details: polymyxin-nonsusceptible strain
# Experimental: (§3) Synergy studies were performed by using polymyxin derivatives in combination with rifampin, a model compound for such antibacterial agents that the intact outer membrane of Gram-negative bacteria acts as a permeability barrier.
# [3] = system: K. pneumoniae JMI 27068; assay: as above; assay type: cell-based, Klebsiella pneumoniae; details: polymyxin-nonsusceptible strain
# Experimental: as §3
# [4] = system: A. baumannii CMI 417; assay: as above; assay type: cell-based, Acinetobacter baumannii; details: polymyxin-nonsusceptible strain
# Experimental: as §3
# [5] = system: A. baumannii ATCC 19606
# Experimental: as §3
# [6] = system: A. baumannii JMI 48125
# Experimental: as §3
# [7] = system: P. aeruginosa JMI 7445
# Experimental: as §3
# [8] = system: E. coli JMI 3328
# Experimental: as §3
# [9] = system: K. pneumoniae ATCC 43816
# Experimental: as §3
# [10] = system: P. aeruginosa ATCC 27853
# Experimental: as §3
# [11] = system: E. coli ATCC 25922
# Experimental: as §3
# [12] = system: K. pneumoniae JMI 27072
# Experimental: as §3
# [13] = 7-day intravenous toxicity (nephrotoxicity) study in cynomolgus monkeys; details: for kidney injury markers (S-BUN, S-Crea, U-NAG/Crea, U-GGT/Crea) / animals euthanized due to severe nephrotoxic effects: IV infusion TID, seven days; for animals euthanized due to severe nephrotoxic effects: 3 animals per group
# Experimental: In vivo toxicity and toxicokinetic studies were performed by using cynomolgus monkeys. The laboratory that performed the animal studies is accredited by the Association for Assessment and Accreditation of Laboratory Animal Care (AAALAC), has an Animal Welfare Assurance issued by the Office of Laboratory Animal Welfare (OLAW), is registered with the United States Department of Agriculture (USDA), and has an Institutional Animal Care and Use Committee (IACUC) responsible for compliance with applicable laws and regulations concerning the humane care and use of laboratory animals.
# Naive female cynomolgus monkeys were acclimatized to study room for 28 days during which each animal was implanted with a permanent indwelling femoral catheter to permit continuous intravenous infusions. The animals were allowed surgical recovery period of at least 2 weeks before initiating dosing.
# Polymyxin B sulfate was from Sigma-Aldrich (catalogue number P0972, lot number BCBF8382V). On each day of use, appropriate quantities of NAB739, NAB815 or polymyxin B were weighed and dissolved in appropriate volumes of sterile saline to prepare a stock solution for each test article and positive control. A correction factor was used in the stock solution preparation to account for both the purity and sulfate content in each test article. Accordingly, the dose (such as 36 mg/kg/d) refers to the dose of the pure peptide as its free base form, not as its sulfate salt.
# The doses were the following: polymyxin B 18 mg/kg/d (Group 1), polymyxin B 24 mg/kg/d (Group 2), NAB739 24 mg/kg/d (Group 3), NAB739 36 mg/kg/d (Group 4), NAB815 24 mg/kg/d (Group 5), NAB815 36 mg/kg/d (Group 6). Three animals were included in each study groups.
# as §1, §2
# On the day of necropsy, animals were sedated with ketamine, weighed, and anesthetized with an intravenous injection of a commercial pentobarbital and phenytoin solution, followed by exsanguinations.
# At necropsy, gross observations and organ weights were recorded, and specific tissues were collected. Histopathology was conducted on sections of kidney stained with hematoxylin and eosin (H&E).
# The figures also show Urine N-acetyl-β-D-glucosaminidase/urine creatinine ratio (U-NAG/Crea; Fig. 3) and Urine Gamma Glutamyltransferase/urine creatinine ratio (U-GGT/Crea; Fig. 4), both urine biomarkers for kidney injury, in those animals. S-Crea and U-Crea were measured by using an Olympus Analyzer (OA) and the modified Jaffe method, S-BUN by using OA and urease/L-glutamate dehydrogenase. U-NAG was measured by using OA/enzymatic, and U-GGT by using OA and glutamyl-carboxy-p-nitroanilide IFCC.
# The presence of the following nephropathological parameters was recorded in each animal: tubular basophilia (regeneration), tubular degeneration/necrosis, infiltration (by mononuclear and/or mixed inflammatory cells), tubular dilatation, and tubular casts.
# [14] = alone, Müller-Hinton II broth, 35°C, 20 hours
# [15] = in combination with rifampin (0.25 µg/mL), duplicate checkerboard assays
SMILES,"urinary recoveries (0-8 h urine collection) ([1]; day 1, per animal)","urine concentrations (in 0-8 h urine collection) ([1]; day 1, per animal)","urinary recoveries (0-8 h urine collection) ([1]; day 7, per animal)","urine concentrations (in 0-8 h urine collection) ([1]; day 7, per animal)",concentration in the urine [1],0-8 h recovery in urine [1],"MIC [2, 14]","MIC [2, 15]","MIC [3, 14]","MIC [3, 15]","MIC [4, 14]","MIC [4, 15]","MIC [5, 14]","MIC [5, 15]","MIC [6, 14]","MIC [6, 15]","MIC [7, 14]","MIC [7, 15]","MIC [8, 14]","MIC [9, 14]",also measured
"CCCCCCCC(=O)N[C@H](C(=O)N[C@H](CO)C(=O)N[C@H]1CCNC(=O)[C@H]([C@@H](C)O)NC(=O)[C@H](CCN)NC(=O)[C@H](CCN)NC(=O)[C@H](CC(C)C)NC(=O)[C@@H](Cc2ccccc2)NC(=O)[C@H](CCN)NC1=O)[C@@H](C)O [NAB739, octanoyl -Thr - DSer-[cyclo-α,γDab - αDab - DPhe- Leu - αDab -αDab - Thr]] (Octanoyl-T[dS][Dab][Dab][dF]L[Dab][Dab]T; lactam 3-C)",20.4% and 26.4%,92 µg/mL and 33 µg/mL and 82 µg/mL,30.6% and 55.8%,268 µg/mL and 348 µg/mL,80 µg/mL and 140 µg/mL and 155 µg/mL,up to 20 % of the dose and ≤ 91 % of the dose and ≤ 92 % of the dose,32 µg/mL,1 µg/mL,128 µg/mL,2 µg/mL,128 µg/mL,2 µg/mL,4 µg/mL,0.5 µg/mL,2 to 4 µg/mL,0.5 µg/mL,4 µg/mL,4 µg/mL,2 µg/mL,4 µg/mL,"MIC [8]: 1 µg/mL; MIC [9]: 1 to 2 µg/mL; MIC [10, 15]: 4 to 8 µg/mL; MIC [11]: 1 µg/mL; MIC [11, 14]: 2 µg/mL; MIC [12, 14]: 2 to 4 µg/mL; MIC [12, 15]: 1 µg/mL; kidney injury markers (S-BUN, S-Crea, U-NAG/Crea, U-GGT/Crea) ([13]; 24 mg/kg/d): one animal receiving NAB739 displayed marked increase in S-Crea; animals euthanized due to severe nephrotoxic effects ([13]; 36 mg/kg/d): One animal"
"CCCCCCCC(=O)N[C@@H](CCN)C(=O)N[C@H](C(=O)N[C@@H](C(=O)N[C@H]1CCNC(=O)[C@H]([C@@H](C)O)NC(=O)[C@H](CCN)NC(=O)[C@H](CC)NC(=O)[C@H](CC(C)C)NC(=O)[C@@H](Cc2ccccc2)NC(=O)[C@H](CCN)NC1=O)[C@H](C)O)[C@@H](C)O [NAB815, octanoyl - αDab -Thr - DThr-[cyclo-α,yDab - αDab - DPhe- Leu -Abu -αDab - Thr]] (Octanoyl-[Dab]T[dT][Dab][Dab][dF]L[Abu][Dab]T; lactam 4-C)",14.3% and 20.9% and 36.3%,173 µg/mL and 265 µg/mL and 114 µg/mL,40.5% and 41.9%,17 µg/mL and 62 µg/mL and 149 µg/mL,175 µg/mL and 225 µg/mL and 260 µg/mL,up to 38 % of the dose and ≤ 55 % of the dose and ≤ 88 % of the dose,128 µg/mL,1 µg/mL,128 µg/mL,4 µg/mL,256 µg/mL,2 µg/mL,4 µg/mL,0.5 to 2 µg/mL,2 µg/mL,0.5 to 2 µg/mL,8 µg/mL,4 µg/mL,4 µg/mL,2 to 4 µg/mL,"MIC [8, 15]: 1 µg/mL; MIC [9, 15]: 1 µg/mL; MIC [10, 14]: 16 µg/mL; MIC [10, 15]: >8 µg/mL; MIC [11, 14]: 2 µg/mL; MIC [11, 15]: 1 µg/mL; MIC [12, 14]: 2 to 4 µg/mL; MIC [12, 15]: 1 to 2 µg/mL; kidney injury markers (S-BUN, S-Crea, U-NAG/Crea, U-GGT/Crea) ([13]; 24 mg/kg/d): None of the parameters was elevated; kidney injury markers (S-BUN, S-Crea, U-NAG/Crea, U-GGT/Crea) ([13]; 36 mg/kg/d): only minor if any elevations in the four parameters; animals euthanized due to severe nephrotoxic effects ([13]; 36 mg/kg/d): underwent no prescheduled necropsy; kidney histopathology findings (nephropathological parameters) ([13]; 36 mg/kg/d, H&E kidney sections, five parameters graded 0 no significant findings, 1 minimal, 2 mild, 3 moderate, 4 marked): moderate findings, both in one parameter only; also recorded: no other than minimal or mild findings"
